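Interpolation was linear, between the two tested concentrations surrounding the appropriate level; five concentrations were tested over 48 hours in 96-well plates. GI50 = concentration required for 50% inhibition of growth. TGI denotes the concentration required for complete inhibition of growth.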
How the values were obtained:
Assay in all cases: NCI tumour cell line growth inhibition, 48 h
[1] = system: A498 renal
[2] = system: CCRF-CEM leukemia
[3] = system: DLD-1 colon
[4] = system: HCC-2998 colon
[5] = system: HCT-116 colon
[6] = system: HCT-15 colon
[7] = system: K-562 leukemia
[8] = system: MOLT-4 leukemia
[9] = system: NCI-H23 lung
[10] = system: NCI-H522 lung
[11] = system: OVCAR-5 ovarian
[12] = system: P388 leukemia
[13] = system: P388/ADR leukemia
[14] = system: PC-3 prostate
[15] = system: RPMI-8226 leukemia
[16] = system: RXF 393 renal
[17] = system: SF-539 CNS
[18] = system: SK-MEL-5 melanoma
[19] = system: SN12C renal
[20] = system: SNB-75 CNS
[21] = system: TK-10 renal
[22] = system: UACC-257 melanoma
[23] = system: XF 498 CNS
[24] = system: 786-0 renal
[25] = system: A549 NSCLC
[26] = system: ACHN renal
[27] = system: CAKI-1 renal
[28] = system: COLO 205 colon
[29] = system: DMS 114 small cell lung
[30] = system: DMS 273 small cell lung
[31] = system: EKVX NSCLC
[32] = system: HL-60(TB) leukemia
[33] = system: HOP-18 NSCLC
[34] = system: HOP-62 NSCLC
[35] = system: HOP-92 NSCLC
[36] = system: HT29 colon
[37] = system: IGROV1 ovarian
[38] = system: KM12 colon
[39] = system: KM20L2 colon
[40] = system: LOX IMVI melanoma
[41] = system: LXFL 529 NSCLC
[42] = system: M14 melanoma
[43] = system: M19-MEL melanoma
[44] = system: MALME-3M melanoma
[45] = system: NCI-H226 lung
[46] = system: NCI-H460 lung
[47] = system: OVCAR-3 ovarian
[48] = system: OVCAR-4 ovarian
[49] = system: OVCAR-8 ovarian
[50] = system: RXF-631 renal
[51] = system: SF-268 CNS
[52] = system: SF-295 CNS
[53] = system: SK-MEL-2 melanoma
[54] = system: SK-MEL-28 melanoma
[55] = system: SK-OV-3 ovarian
[56] = system: SNB-19 CNS
[57] = system: SNB-78 CNS
[58] = system: SR leukemia
[59] = system: SW-620 colon
[60] = system: U251 CNS
[61] = system: UACC-62 melanoma
[62] = system: UO-31 renal

Compound: CCCCCCCCCCNC1CC(OC2CC(O)(C(O)CO)Cc3c(O)c4c(c(O)c32)C(=O)c2c(OC)cccc2C4=O)OC(C)C1O (configuration not stated)
- TGI [1]: 2.62 µM
- TGI [2]: 4.91 µM
- TGI [3]: 2.28 µM
- TGI [4]: 2.74 µM
- TGI [5]: 0.65 µM
- TGI [6]: 4 µM
- TGI [7]: 0.963 µM
- TGI [8]: 0.9 µM
- TGI [9]: 12.6 µM
- TGI [10]: 3.73 µM
- TGI [11]: 3.29 µM
- TGI [12]: 0.362 µM
- TGI [13]: 3.34 µM
- TGI [14]: 2.85 µM
- TGI [15]: 3.73 µM
- TGI [16]: 2.75 µM
- TGI [17]: 3.41 µM
- TGI [18]: 3.06 µM
- TGI [19]: 3.4 µM
- TGI [20]: 2.74 µM
- TGI [21]: 56.5 µM
- TGI [22]: 3.05 µM
- TGI [23]: 3.34 µM

Compound: O=c1/c(=C/c2ccco2)sc2nc3ccccc3n12
- GI50 [24]: > 100 µM
- TGI [24]: > 100 µM
- GI50 [1]: > 100 µM
- TGI [1]: > 100 µM
- GI50 [25]: > 100 µM
- TGI [25]: > 100 µM
- GI50 [26]: > 100 µM
- TGI [26]: > 100 µM
- GI50 [27]: > 100 µM
- TGI [27]: > 100 µM
- GI50 [2]: > 100 µM
- TGI [2]: > 100 µM
- TGI [28]: > 100 µM
- GI50 [3]: > 100 µM
- TGI [3]: > 100 µM
- GI50 [29]: > 100 µM
- TGI [29]: > 100 µM
- GI50 [30]: > 10 µM
- TGI [30]: > 100 µM
- GI50 [31]: > 10 µM
- TGI [31]: > 100 µM
- GI50 [4]: > 100 µM
- TGI [4]: > 100 µM
- GI50 [5]: > 100 µM
- TGI [5]: > 100 µM
- TGI [6]: > 10 µM
- GI50 [32]: > 100 µM
- TGI [32]: > 100 µM
- TGI [33]: > 100 µM
- TGI [34]: > 100 µM
- TGI [35]: > 10 µM
- GI50 [36]: > 100 µM
- TGI [36]: > 100 µM
- GI50 [37]: > 100 µM
- TGI [37]: > 100 µM
- GI50 [7]: > 100 µM
- TGI [7]: > 100 µM
- TGI [38]: > 100 µM
- TGI [39]: > 10 µM
- GI50 [40]: > 100 µM
- TGI [40]: > 100 µM
- GI50 [41]: > 100 µM
- TGI [41]: > 100 µM
- GI50 [42]: > 100 µM
- TGI [42]: > 100 µM
- GI50 [43]: > 100 µM
- TGI [43]: > 100 µM
- GI50 [44]: > 100 µM
- TGI [44]: > 100 µM
- GI50 [8]: > 100 µM
- TGI [8]: > 100 µM
- GI50 [45]: > 100 µM
- TGI [45]: > 100 µM
- GI50 [9]: > 100 µM
- TGI [9]: > 100 µM
- GI50 [46]: > 100 µM
- TGI [46]: > 100 µM
- GI50 [10]: > 100 µM
- TGI [10]: > 100 µM
- GI50 [47]: > 100 µM
- TGI [47]: > 100 µM
- GI50 [48]: > 100 µM
- TGI [48]: > 100 µM
- TGI [11]: > 10 µM
- GI50 [49]: > 100 µM
- TGI [49]: > 100 µM
- GI50 [15]: > 100 µM
- TGI [15]: > 100 µM
- GI50 [16]: > 10 µM
- TGI [16]: > 100 µM
- GI50 [50]: > 100 µM
- TGI [50]: > 100 µM
- TGI [51]: > 10 µM
- GI50 [52]: > 100 µM
- TGI [52]: > 100 µM
- GI50 [17]: > 100 µM
- TGI [17]: > 100 µM
- GI50 [53]: > 100 µM
- TGI [53]: > 100 µM
- GI50 [54]: > 100 µM
- TGI [54]: > 100 µM
- GI50 [18]: > 100 µM
- TGI [18]: > 100 µM
- TGI [55]: > 100 µM
- TGI [19]: > 10 µM
- GI50 [56]: > 100 µM
- TGI [56]: > 100 µM
- GI50 [20]: > 10 µM
- TGI [20]: > 100 µM
- GI50 [57]: > 100 µM
- TGI [57]: > 100 µM
- TGI [58]: > 10 µM
- GI50 [59]: > 100 µM
- TGI [59]: > 100 µM
- GI50 [21]: > 10 µM
- TGI [21]: > 100 µM
- TGI [60]: > 10 µM
- GI50 [22]: > 100 µM
- TGI [22]: > 100 µM
- GI50 [61]: > 100 µM
- TGI [61]: > 100 µM
- TGI [62]: > 10 µM
- GI50 [23]: > 100 µM
- TGI [23]: > 100 µM

Compound: CCOC(=O)[C]1([Bi]([CH3])[CH3])N=NC(C(=O)OC)=C1C(=O)OC (configuration not stated)
- GI50 [24]: 18.8 µM
- TGI [24]: 33.2 µM
- GI50 [1]: 25.7 µM
- TGI [1]: 49 µM
- GI50 [25]: > 10 µM
- TGI [25]: > 10 µM
- GI50 [26]: 18 µM
- TGI [26]: 32.4 µM
- GI50 [27]: 15.9 µM
- TGI [27]: 29.3 µM
- GI50 [2]: 11.3 µM
- TGI [2]: 37.6 µM
- GI50 [28]: 19.8 µM
- TGI [28]: 35.9 µM
- GI50 [3]: 18.3 µM
- TGI [3]: 32.5 µM
- GI50 [29]: 20 µM
- TGI [29]: 40 µM
- GI50 [30]: 22.5 µM
- TGI [30]: 59.1 µM
- GI50 [31]: 18.7 µM
- TGI [31]: 36.5 µM
- GI50 [4]: 16.4 µM
- TGI [4]: 30.7 µM
- GI50 [6]: 20.7 µM
- TGI [6]: 49.6 µM
- GI50 [32]: 21.2 µM
- TGI [32]: 52.1 µM
- GI50 [33]: 17.3 µM
- TGI [33]: 31 µM
- GI50 [34]: > 100 µM
- TGI [34]: > 100 µM
- GI50 [35]: 20.4 µM
- TGI [35]: 42.8 µM
- GI50 [36]: 19.3 µM
- TGI [36]: 39.4 µM
- GI50 [37]: 24.6 µM
- TGI [37]: 51.9 µM
- GI50 [7]: 16.5 µM
- TGI [7]: 65.7 µM
- GI50 [38]: 21.5 µM
- TGI [38]: 49.2 µM
- GI50 [41]: 14.5 µM
- TGI [41]: 35.2 µM
- GI50 [42]: > 10 µM
- TGI [42]: > 10 µM
- GI50 [43]: 17.6 µM
- TGI [43]: 32.5 µM
- GI50 [44]: 17 µM
- TGI [44]: 31.8 µM
- GI50 [8]: 23.3 µM
- TGI [8]: 63.9 µM
- GI50 [45]: 20.6 µM
- TGI [45]: 41.4 µM
- GI50 [9]: 18 µM
- TGI [9]: 35 µM
- GI50 [46]: > 100 µM
- TGI [46]: > 100 µM
- GI50 [47]: 16.5 µM
- TGI [47]: 31.7 µM
- GI50 [48]: 42.4 µM
- TGI [48]: > 100 µM
- GI50 [11]: > 10 µM
- TGI [11]: > 10 µM
- GI50 [49]: 19.2 µM
- TGI [49]: 42.3 µM
- GI50 [15]: 21.5 µM
- TGI [15]: 67.2 µM
- GI50 [50]: 17.2 µM
- TGI [50]: 31.4 µM
- GI50 [51]: 17.2 µM
- TGI [51]: 31.7 µM
- GI50 [52]: > 100 µM
- TGI [52]: > 100 µM
- GI50 [17]: 18.1 µM
- TGI [17]: 32.3 µM
- GI50 [53]: 18.3 µM
- TGI [53]: 33.7 µM
- GI50 [54]: 16.2 µM
- TGI [54]: 30.4 µM
- GI50 [55]: > 100 µM
- TGI [55]: > 100 µM
- GI50 [19]: 19.2 µM
- TGI [19]: 35.8 µM
- GI50 [56]: 26 µM
- TGI [56]: 66 µM
- GI50 [20]: 15.6 µM
- TGI [20]: 29.9 µM
- GI50 [57]: 27.4 µM
- TGI [57]: > 100 µM
- GI50 [59]: 16.6 µM
- TGI [59]: 32.8 µM
- GI50 [21]: 17.3 µM
- TGI [21]: 32.1 µM
- GI50 [60]: > 100 µM
- TGI [60]: > 100 µM
- GI50 [61]: 19.5 µM
- TGI [61]: 34.4 µM
- GI50 [62]: 20.3 µM
- TGI [62]: 34.5 µM

From PubChem BioAssay (NCI)
